28 compounds from US10112941B2, “Tricyclic compounds as anticancer agents” (BRISTOL-MYERS SQUIBB COMPANY, priority 2013, dated 2018) can be followed below.

This assay deals with BRD4 (Homo sapiens, UniProt O60885). Description: Time Resolved Fluorescence Resonance Energy Transfer (TR-FRET) binding assay, BRD4. To be noted: one of the FRET assays described; read-out: FRET BRD4 IC50. For orientation: In TR-FRET formats the signal depends on donor and acceptor labels being close together.

Take `Cc1noc(C)c1-c1cnc2c3ccc(C(C)(C)O)cc3n(C(c3ccccc3)C3CCOCC3)c2c1` (single isomer, unassigned) [Example 1, 2-[3-(Dimethyl-1,2-oxazol-4-yl)-5-[oxan-4-yl(phenyl)methyl]-5H-pyrido[3,2-b]indol-7-yl]propan-2-ol]: the IC50 is less than 5 nM.

As for `Cc1noc(C)c1-c1cnc2c3ccc(C(C)(C)O)cc3n(C(c3ccccc3)C3CCOCC3)c2c1` (single isomer, unassigned) [Example 2, 2-[3-(Dimethyl-1,2-oxazol-4-yl)-5-[oxan-4-yl(phenyl)methyl]-5H-pyrido[3,2-b]indol-7-yl]propan-2-ol], the IC50 is less than 5 nM.

`Cc1noc(C)c1-c1cnc2c3ccc(C(C)(C)O)cc3n(C(c3ccccc3)C3CCC(F)(F)CC3)c2c1` (single isomer, unassigned) [Example 27, 2-{5-[(4,4-Difluorocyclohexyl)(phenyl)methyl]-3-(dimethyl-1,2-oxazol-4-yl)-5H-pyrido[3,2-b]indol-7-yl}propan-2-ol]: the IC50 is less than 5 nM.

Regarding `Cc1noc(C)c1-c1cnc2c3ccc(C(C)(C)O)cc3n(C(c3ccccc3)C3CCC(F)(F)CC3)c2c1` (single isomer, unassigned) [Example 28, 2-{5-[(4,4-Difluorocyclohexyl)(phenyl)methyl]-3-(dimethyl-1,2-oxazol-4-yl)-5H-pyrido[3,2-b]indol-7-yl}propan-2-ol], the IC50 is less than 5 nM.

As for `Cc1noc(C)c1-c1cnc2c3ccc(C(C)(C)O)cc3n(C(c3ccccc3)c3cscn3)c2c1` (single isomer, unassigned) [Example 29, 2-[3-(Dimethyl-1,2-oxazol-4-yl)-5-[phenyl(1,3-thiazol-4-yl)methyl]-5H-pyrido[3,2-b]indol-7-yl]propan-2-ol], the IC50 is less than 5 nM.

In the case of `Cc1noc(C)c1-c1cnc2c3ccc(C(C)(C)O)cc3n(C(c3ccccc3)c3cscn3)c2c1` (single isomer, unassigned) [Example 30, 2-[3-(Dimethyl-1,2-oxazol-4-yl)-5-[phenyl(1,3-thiazol-4-yl)methyl]-5H-pyrido[3,2-b]indol-7-yl]propan-2-ol], the IC50 was less than 5 nM.

For `Cc1noc(C)c1-c1cnc2c3ccc(C(C)(C)O)cc3n(C(c3ccccc3)C3(F)CCC3)c2c1` (single isomer, unassigned) [Example 32, 2-[3-(Dimethyl-1,2-oxazol-4-yl)-5-[(1-fluorocyclobutyl)(phenyl)methyl]-5H-pyrido[3,2-b]indol-7-yl]propan-2-ol], the IC50 was less than 5 nM.

As for `Cc1noc(C)c1-c1cnc2c3ccc(C(C)(C)O)cc3n(C(c3ccccc3)C3(F)CCC3)c2c1` (single isomer, unassigned) [Example 33, 2-[3-(Dimethyl-1,2-oxazol-4-yl)-5-[(1-fluorocyclobutyl)(phenyl)methyl]-5H-pyrido[3,2-b]indol-7-yl]propan-2-ol], the IC50 was less than 5 nM.

`Cc1noc(C)c1-c1cnc2c3ccc(C(C)(C)O)cc3n(C(CCC(F)(F)F)c3cocn3)c2c1` (single isomer, unassigned) [Example 34, 2-[3-(Dimethyl-1,2-oxazol-4-yl)-5-[4,4,4-trifluoro-1-(1,3-oxazol-4-yl)butyl]-5H-pyrido[3,2-b]indol-7-yl]propan-2-ol]: the IC50 was less than 5 nM.

Turning to `Cc1noc(C)c1-c1cnc2c3ccc(C(C)(C)O)cc3n(C(CCC(F)(F)F)c3cocn3)c2c1` (single isomer, unassigned) [Example 35, 2-[3-(Dimethyl-1,2-oxazol-4-yl)-5-[4,4,4-trifluoro-1-(1,3-oxazol-4-yl)butyl]-5H-pyrido[3,2-b]indol-7-yl]propan-2-ol], the half-maximal inhibitory concentration (IC50) was less than 25 nM.

With `Cc1noc(C)c1-c1cnc2c3ccc(C(C)(C)O)cc3n(C(CCC(F)(F)F)c3cnoc3)c2c1` (single isomer, unassigned) [Example 36, 2-[3-(Dimethyl-1,2-oxazol-4-yl)-5-[4,4,4-trifluoro-1-(1,2-oxazol-4-yl)butyl]-5H-pyrido[3,2-b]indol-7-yl]propan-2-ol], the IC50 was less than 25 nM.

As for `Cc1noc(C)c1-c1cnc2c3ccc(C(C)(C)O)cc3n(C(CCC(F)(F)F)c3cnoc3)c2c1` (single isomer, unassigned) [Example 37, 2-[3-(Dimethyl-1,2-oxazol-4-yl)-5-[4,4,4-trifluoro-1-(1,2-oxazol-4-yl)butyl]-5H-pyrido[3,2-b]indol-7-yl]propan-2-ol], the half-inhibitory concentration (IC50) was less than 5 nM.

For the compound `Cc1noc(C)c1-c1cnc2c3ccc(S(C)(=O)=O)cc3n(C(CCC(F)(F)F)c3ccccc3)c2c1` (single isomer, unassigned) [Example 38, 4-[7-Methanesulfonyl-5-(4,4,4-trifluoro-1-phenylbutyl)-5H-pyrido[3,2-b]indol-3-yl]-3,5-dimethyl-1,2-oxazole], the IC50 is less than 25 nM.

For `Cc1noc(C)c1-c1cnc2c3ccc(S(C)(=O)=O)cc3n(C(CCC(F)(F)F)c3ccccc3)c2c1` (single isomer, unassigned) [Example 39, 4-[7-Methanesulfonyl-5-(4,4,4-trifluoro-1-phenylbutyl)-5H-pyrido[3,2-b]indol-3-yl]-3,5-dimethyl-1,2-oxazole], the 50% inhibitory concentration (IC50) is less than 1500 nM.

Regarding `Cc1oncc1-c1cnc2c3ccc(C(C)(C)O)cc3n(C(c3ccc(F)cc3)C3CCOCC3)c2c1` (single isomer, unassigned) [Example 40, 2-{5-[(4-Fluorophenyl)(oxan-4-yl)methyl]-3-(5-methyl-1,2-oxazol-4-yl)-5H-pyrido[3,2-b]indol-7-yl}propan-2-ol], the IC50 is less than 25 nM.

As to `Cc1oncc1-c1cnc2c3ccc(C(C)(C)O)cc3n(C(c3ccc(F)cc3)C3CCOCC3)c2c1` (single isomer, unassigned) [Example 41, 2-{5-[(4-Fluorophenyl)(oxan-4-yl)methyl]-3-(5-methyl-1,2-oxazol-4-yl)-5H-pyrido[3,2-b]indol-7-yl}propan-2-ol], the IC50 was less than 1500 nM.

In the case of `Cc1nocc1-c1cnc2c3ccc(C(C)(C)O)cc3n(C(c3ccc(F)cc3)C3CCOCC3)c2c1` (single isomer, unassigned) [Example 42, 2-{5-[(4-Fluorophenyl)(oxan-4-yl)methyl]-3-(3-methyl-1,2-oxazol-4-yl)-5H-pyrido[3,2-b]indol-7-yl}propan-2-ol], the 50% inhibitory concentration (IC50) was less than 25 nM.

Turning to `Cc1nocc1-c1cnc2c3ccc(C(C)(C)O)cc3n(C(c3ccc(F)cc3)C3CCOCC3)c2c1` (single isomer, unassigned) [Example 43, 2-{5-[(4-Fluorophenyl)(oxan-4-yl)methyl]-3-(3-methyl-1,2-oxazol-4-yl)-5H-pyrido[3,2-b]indol-7-yl}propan-2-ol], the IC50 was less than 1500 nM.

With `Cc1nnn(C)c1-c1cnc2c3ccc(C(C)(C)O)cc3n([C@H](c3ccccc3)C3CCOCC3)c2c1` (single isomer, unassigned) [Example 54], the IC50 is less than 5 nM.

For `Cc1nnn(C)c1-c1cnc2c3ccc(C(C)(C)O)cc3n([C@@H](c3ccccc3)C3CCOCC3)c2c1` (single isomer, unassigned) [Example 55, 2-[3-(Dimethyl-1H-1,2,3-triazol-5-yl)-5-[oxan-4-yl(phenyl)methyl]-5H-pyrido[3,2-b]indol-7-yl]propan-2-ol], the IC50 is less than 5 nM.

As to `Cn1nncc1-c1cnc2c3ccc(C(C)(C)O)cc3n(C(c3ccc(F)cc3)C3CCOCC3)c2c1` (single isomer, unassigned) [Example 66, 2-{5-[(4-Fluorophenyl)(oxan-4-yl)methyl]-3-(1-methyl-1H-1,2,3-triazol-5-yl)-5H-pyrido[3,2-b]indol-7-yl}propan-2-ol], the half-inhibitory concentration (IC50) was less than 5 nM.

With `Cn1nncc1-c1cnc2c3ccc(C(C)(C)O)cc3n(C(c3ccc(F)cc3)C3CCOCC3)c2c1` (single isomer, unassigned) [Example 67, 2-{5-[(4-Fluorophenyl)(oxan-4-yl)methyl]-3-(1-methyl-1H-1,2,3-triazol-5-yl)-5H-pyrido[3,2-b]indol-7-yl}propan-2-ol], the IC50 is less than 25 nM.

On to `Cc1nnn(C)c1-c1cnc2c3ccc(C(C)(C)O)c(F)c3n(C(c3ccccc3)C3CCOCC3)c2c1` (single isomer, unassigned) [Example 71, 2-[3-(Dimethyl-1H-1,2,3-triazol-5-yl)-6-fluoro-5-[oxan-4-yl(phenyl)methyl]-5H-pyrido[3,2-b]indol-7-yl]propan-2-ol], for which the IC50 is less than 5 nM.

Take `Cc1nnn(C)c1-c1cnc2c3cc(F)c(C(C)(C)O)cc3n(C(c3ccc(F)cc3)C3CCOCC3)c2c1` (single isomer, unassigned) [Example 78, 2-[3-(Dimethyl-1H-1,2,3-triazol-5-yl)-8-fluoro-5-[(4-fluorophenyl)(oxan-4-yl)methyl]-5H-pyrido[3,2-b]indol-7-yl]propan-2-ol]: the IC50 is less than 5 nM.

With `Cc1nnn(C)c1-c1cnc2c3cc(F)c(C(C)(C)O)cc3n(C(c3ccc(F)cc3)C3CCOCC3)c2c1` (single isomer, unassigned) [Example 79, 2-[3-(Dimethyl-1H-1,2,3-triazol-5-yl)-8-fluoro-5-[(4-fluorophenyl)(oxan-4-yl)methyl]-5H-pyrido[3,2-b]indol-7-yl]propan-2-ol], the IC50 is less than 25 nM.

As for `Cc1noc(C)c1-c1cnc2c3ccc(C(C)(C)O)c(F)c3n(C(c3ccc(F)cc3)C3CCOCC3)c2c1` (single isomer, unassigned) [Example 80, 2-[3-(Dimethyl-1,2-oxazol-4-yl)-6-fluoro-5-[(4-fluorophenyl)(oxan-4-yl)methyl]-5H-pyrido[3,2-b]indol-7-yl]propan-2-ol], the IC50 is less than 25 nM.

With `Cc1noc(C)c1-c1cnc2c3ccc(C(C)(C)O)c(F)c3n(C(c3ccc(F)cc3)C3CCOCC3)c2c1` (single isomer, unassigned) [Example 81, 2-[3-(Dimethyl-1,2-oxazol-4-yl)-6-fluoro-5-[(4-fluorophenyl)(oxan-4-yl)methyl]-5H-pyrido[3,2-b]indol-7-yl]propan-2-ol], the IC50 is less than 5 nM.

For `Cc1nnn(C)c1-c1cnc2c3ccc(C(C)(C)O)cc3n(C(c3cccc(F)c3F)C3CCOCC3)c2c1` (single isomer, unassigned) [Example 94, 2-{5-[(2,3-Difluorophenyl)(oxan-4-yl)methyl]-3-(dimethyl-1H-1,2,3-triazol-5-yl)-5H-pyrido[3,2-b]indol-7-yl}propan-2-ol], the IC50 is less than 5 nM.

For orientation: IC50 means the point on the concentration scale where inhibition reaches its midpoint.
